ChEMBL document CHEMBL4387741, “Optimization of novel reversible Bruton's tyrosine kinase inhibitors identified using Tethering-fragment-based screens” (Bioorg Med Chem, 2019)

Tests used:
[1] = tested on: Phosphatidylinositol 4,5-bisphosphate 3-kinase catalytic subunit alpha isoform (Homo sapiens), P42336 [H1047Y]; test: Inhibition of human partial length PIK3CA H1047Y mutant (R108 to N1068 residues) expressed in mammalian expression system at 1 uM by Kinomescan method relative to control
[2] = biological target: Serine/threonine-protein kinase ICK (Homo sapiens) (UniProt Q9UPZ9); test: Inhibition of wild-type human partial length ICK (M1 to P314 residues) expressed in mammalian expression system at 1 uM by Kinomescan method relative to control
[3] = biological target: Serine/threonine-protein kinase PAK 4 (Homo sapiens) (UniProt O96013); test: Inhibition of wild-type human partial length PAK4 (Q144 to R438 residues) expressed in bacterial expression system at 1 uM by Kinomescan method relative to control
Serine/threonine-protein kinase PAK 4 (Homo sapiens), sequence (O96013 whole entry, looked up, the tested form may be a part): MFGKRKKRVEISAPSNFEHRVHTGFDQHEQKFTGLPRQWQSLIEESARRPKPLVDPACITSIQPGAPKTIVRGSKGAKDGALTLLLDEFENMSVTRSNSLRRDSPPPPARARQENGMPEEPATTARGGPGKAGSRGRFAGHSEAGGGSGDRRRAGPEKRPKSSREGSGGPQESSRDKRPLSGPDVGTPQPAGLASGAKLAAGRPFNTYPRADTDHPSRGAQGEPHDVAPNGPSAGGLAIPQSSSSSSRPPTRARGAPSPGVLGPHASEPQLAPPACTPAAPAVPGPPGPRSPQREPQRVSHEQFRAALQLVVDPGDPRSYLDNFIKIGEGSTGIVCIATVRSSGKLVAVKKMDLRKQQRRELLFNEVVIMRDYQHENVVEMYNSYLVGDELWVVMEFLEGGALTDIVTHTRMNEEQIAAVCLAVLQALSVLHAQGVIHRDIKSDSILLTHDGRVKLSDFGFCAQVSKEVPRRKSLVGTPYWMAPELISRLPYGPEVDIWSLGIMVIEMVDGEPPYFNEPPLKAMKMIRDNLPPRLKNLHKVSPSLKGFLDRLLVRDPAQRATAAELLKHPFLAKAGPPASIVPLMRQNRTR

[4] = biological target: Phosphatidylinositol 4-phosphate 3-kinase C2 domain-containing subunit beta (Homo sapiens) (UniProt O00750); test: Inhibition of wild-type human partial length PIK3C2B (M1 to L1634 residues) expressed in mammalian expression system at 1 uM by Kinomescan method relative to control
[5] = biological target: Serine/threonine-protein kinase 10 (Homo sapiens) (UniProt O94804); test: Inhibition of wild-type human partial length LOK (E16 to V314 residues) expressed in bacterial expression system at 1 uM by Kinomescan method relative to control
[6] = tested on: Tyrosine-protein kinase ABL1 (Homo sapiens), P00519 [T315I]; test: Inhibition of human non-phosphorylated ABL1 T315I mutant (S229 to K512 residues) expressed in mammalian expression system at 1 uM by Kinomescan method relative to control
[7] = tested on: Hepatocyte growth factor receptor (Homo sapiens), P08581 [Y1235D]; test: Inhibition of human partial length MET Y1235D mutant (D1010 to S1367 residues) expressed in bacterial expression system at 1 uM by Kinomescan method relative to control
[8] = biological target: Cyclin-dependent kinase 2 homolog (Plasmodium falciparum (isolate 3D7)) (UniProt P61075); test: Inhibition of wild-type Plasmodium falciparum full length PK5 (M1 to N288 residues) expressed in mammalian expression system at 1 uM by Kinomescan method relative to control
Cyclin-dependent kinase 2 homolog (Plasmodium falciparum (isolate 3D7)), sequence (P61075 whole entry, the tested form may be a part): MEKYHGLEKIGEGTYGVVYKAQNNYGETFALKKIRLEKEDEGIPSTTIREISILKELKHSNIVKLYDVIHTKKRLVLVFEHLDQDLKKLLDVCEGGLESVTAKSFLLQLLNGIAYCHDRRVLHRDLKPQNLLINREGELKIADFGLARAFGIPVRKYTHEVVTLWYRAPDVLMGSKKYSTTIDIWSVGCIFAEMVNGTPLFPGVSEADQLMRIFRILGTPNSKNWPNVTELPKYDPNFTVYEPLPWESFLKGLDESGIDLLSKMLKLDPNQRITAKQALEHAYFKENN

[9] = biological target: Mitogen-activated protein kinase kinase kinase 5 (Homo sapiens) (UniProt Q99683); test: Inhibition of wild-type human partial length ASK1 (E648 to S964 residues) expressed in bacterial expression system at 1 uM by Kinomescan method relative to control
[10] = biological target: Rho-associated protein kinase 1 (Homo sapiens) (UniProt Q13464); test: Inhibition of wild-type human partial length ROCK1 (M1 to R415 residues) expressed in mammalian expression system at 1 uM by Kinomescan method relative to control
[11] = biological target: Interferon-induced, double-stranded RNA-activated protein kinase (Homo sapiens) (UniProt P19525); test: Inhibition of wild-type human partial length PRKR (F247 to C551 residues) expressed in bacterial expression system at 1 uM by Kinomescan method relative to control
[12] = biological target: Bone morphogenetic protein receptor type-1A (Homo sapiens) (UniProt P36894); test: Inhibition of wild-type human partial length BMPR1A (Q214 to I532 residues) expressed in bacterial expression system at 1 uM by Kinomescan method relative to control
[13] = tested on: Mast/stem cell growth factor receptor Kit (Homo sapiens), P10721 [D816V]; test: Inhibition of human partial length KIT D816V mutant (I571 to D952 residues) expressed in bacterial expression system at 1 uM by Kinomescan method relative to control
Mast/stem cell growth factor receptor Kit (Homo sapiens), P10721 [D816V], sequence (P10721 whole entry D816V, the tested form may be a part): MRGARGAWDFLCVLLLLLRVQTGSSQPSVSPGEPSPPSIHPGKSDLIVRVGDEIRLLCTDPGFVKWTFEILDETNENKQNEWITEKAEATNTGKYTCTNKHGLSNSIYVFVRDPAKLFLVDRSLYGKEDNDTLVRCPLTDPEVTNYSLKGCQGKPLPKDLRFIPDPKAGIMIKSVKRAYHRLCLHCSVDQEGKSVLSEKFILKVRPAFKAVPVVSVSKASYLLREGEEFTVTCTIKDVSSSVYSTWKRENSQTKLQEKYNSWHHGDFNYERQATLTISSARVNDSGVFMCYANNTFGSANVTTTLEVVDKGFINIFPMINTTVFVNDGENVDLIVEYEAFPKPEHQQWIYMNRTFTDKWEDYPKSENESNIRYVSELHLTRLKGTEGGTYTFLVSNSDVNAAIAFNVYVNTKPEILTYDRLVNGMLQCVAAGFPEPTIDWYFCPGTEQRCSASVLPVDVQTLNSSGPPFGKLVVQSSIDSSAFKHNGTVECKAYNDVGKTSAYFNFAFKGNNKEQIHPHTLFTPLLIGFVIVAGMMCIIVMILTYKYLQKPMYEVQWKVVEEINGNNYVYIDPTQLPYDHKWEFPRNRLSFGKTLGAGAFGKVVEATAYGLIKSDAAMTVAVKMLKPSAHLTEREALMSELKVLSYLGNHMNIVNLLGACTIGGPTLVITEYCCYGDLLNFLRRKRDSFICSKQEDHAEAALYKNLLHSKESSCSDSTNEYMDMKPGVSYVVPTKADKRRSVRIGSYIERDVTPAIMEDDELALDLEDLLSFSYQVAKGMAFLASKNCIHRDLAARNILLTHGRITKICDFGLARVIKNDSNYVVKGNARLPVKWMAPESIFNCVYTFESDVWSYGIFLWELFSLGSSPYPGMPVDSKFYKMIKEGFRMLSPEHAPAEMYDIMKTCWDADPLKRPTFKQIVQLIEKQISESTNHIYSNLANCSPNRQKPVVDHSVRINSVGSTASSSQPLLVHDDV

[14] = biological target: Tyrosine-protein kinase Lck (Homo sapiens) (UniProt P06239); test: Inhibition of wild-type human partial length LCK (R207 to P509 residues) expressed in bacterial expression system at 1 uM by Kinomescan method relative to control
[15] = biological target: Interleukin-1 receptor-associated kinase 4 (Homo sapiens) (UniProt Q9NWZ3); test: Inhibition of wild-type human partial length IRAK4 (M1 to S460 residues) expressed in mammalian expression system at 1 uM by Kinomescan method relative to control
Interleukin-1 receptor-associated kinase 4 (Homo sapiens), sequence (Q9NWZ3 whole entry, the tested form may be a part): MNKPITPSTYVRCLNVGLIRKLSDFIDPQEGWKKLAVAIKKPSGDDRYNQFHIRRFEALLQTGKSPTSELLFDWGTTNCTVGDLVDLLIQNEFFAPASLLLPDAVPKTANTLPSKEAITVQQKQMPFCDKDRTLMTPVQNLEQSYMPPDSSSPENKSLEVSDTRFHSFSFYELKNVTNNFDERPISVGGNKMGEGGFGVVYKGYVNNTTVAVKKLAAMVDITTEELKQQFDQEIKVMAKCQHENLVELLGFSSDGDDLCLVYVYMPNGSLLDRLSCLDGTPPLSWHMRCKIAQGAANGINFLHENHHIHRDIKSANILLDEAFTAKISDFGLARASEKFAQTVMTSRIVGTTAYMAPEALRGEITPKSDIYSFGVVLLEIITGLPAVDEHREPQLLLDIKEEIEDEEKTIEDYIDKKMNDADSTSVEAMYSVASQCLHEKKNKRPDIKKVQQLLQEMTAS

[16] = biological target: Calcium/calmodulin-dependent protein kinase type II subunit beta (Homo sapiens) (UniProt Q13554); test: Inhibition of wild-type human partial length CAMK2B (M1 to Q380 residues) expressed in bacterial expression system at 1 uM by Kinomescan method relative to control
[17] = biological target: 1-phosphatidylinositol 3-phosphate 5-kinase (Homo sapiens) (UniProt Q9Y2I7); test: Inhibition of wild-type human partial length PIKFYVE (F1512 to C2098 residues) expressed in mammalian expression system at 1 uM by Kinomescan method relative to control
[18] = biological target: Serine/threonine-protein kinase PAK 4 (Homo sapiens) (UniProt O96013); test: Inhibition of wild-type human partial length PAK4 (Q144 to R438 residues) expressed in bacterial expression system at 10 uM by Kinomescan method relative to control
[19] = biological target: Phosphatidylinositol 5-phosphate 4-kinase type-2 gamma (Homo sapiens) (UniProt Q8TBX8); test: Inhibition of wild-type human partial length PIP5K2C (M1 to A421 residues) expressed in mammalian expression system at 10 uM by Kinomescan method relative to control
Phosphatidylinositol 5-phosphate 4-kinase type-2 gamma (Homo sapiens), sequence (Q8TBX8 whole entry, the tested form may be a part): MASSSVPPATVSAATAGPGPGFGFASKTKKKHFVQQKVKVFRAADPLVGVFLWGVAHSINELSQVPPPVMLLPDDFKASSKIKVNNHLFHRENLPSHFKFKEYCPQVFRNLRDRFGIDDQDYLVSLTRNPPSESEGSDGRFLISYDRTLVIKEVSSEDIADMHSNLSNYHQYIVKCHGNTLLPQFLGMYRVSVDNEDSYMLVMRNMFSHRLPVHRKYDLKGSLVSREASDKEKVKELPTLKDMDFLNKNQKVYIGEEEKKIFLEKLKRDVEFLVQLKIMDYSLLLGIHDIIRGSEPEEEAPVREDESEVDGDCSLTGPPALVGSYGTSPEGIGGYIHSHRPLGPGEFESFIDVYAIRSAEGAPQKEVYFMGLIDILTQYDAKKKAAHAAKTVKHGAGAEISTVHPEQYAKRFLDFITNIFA

[20] = biological target: Interleukin-1 receptor-associated kinase 4 (Homo sapiens) (UniProt Q9NWZ3); test: Inhibition of wild-type human partial length IRAK4 (M1 to S460 residues) expressed in mammalian expression system at 10 uM by Kinomescan method relative to control
[21] = biological target: Myotonin-protein kinase (Homo sapiens) (UniProt Q09013); test: Inhibition of wild-type human partial length DMPK (V47 to V415 residues) expressed in bacterial expression system at 10 uM by Kinomescan method relative to control
[22] = biological target: Serine/threonine-protein kinase RIO3 (Homo sapiens) (UniProt O14730); test: Inhibition of wild-type human full length RIOK3 (M1 to E519 residues) expressed in bacterial expression system at 10 uM by Kinomescan method relative to control
[23] = biological target: Dual specificity tyrosine-phosphorylation-regulated kinase 1A (Homo sapiens) (UniProt Q13627); test: Inhibition of wild-type human partial length DYRK1A (H129 to S509 residues) expressed in mammalian expression system at 10 uM by Kinomescan method relative to control
[24] = biological target: Serine/threonine-protein kinase RIO2 (Homo sapiens) (UniProt Q9BVS4); test: Inhibition of wild-type human partial length RIOK2 (M1 to D313 residues) expressed in mammalian expression system at 10 uM by Kinomescan method relative to control
[25] = biological target: Serine/threonine-protein kinase N2 (Homo sapiens) (UniProt Q16513); test: Inhibition of wild-type human partial length PKN2 (E634 to C984 residues) expressed in bacterial expression system at 10 uM by Kinomescan method relative to control
Serine/threonine-protein kinase N2 (Homo sapiens), sequence (Q16513 whole entry, looked up, the tested form may be a part): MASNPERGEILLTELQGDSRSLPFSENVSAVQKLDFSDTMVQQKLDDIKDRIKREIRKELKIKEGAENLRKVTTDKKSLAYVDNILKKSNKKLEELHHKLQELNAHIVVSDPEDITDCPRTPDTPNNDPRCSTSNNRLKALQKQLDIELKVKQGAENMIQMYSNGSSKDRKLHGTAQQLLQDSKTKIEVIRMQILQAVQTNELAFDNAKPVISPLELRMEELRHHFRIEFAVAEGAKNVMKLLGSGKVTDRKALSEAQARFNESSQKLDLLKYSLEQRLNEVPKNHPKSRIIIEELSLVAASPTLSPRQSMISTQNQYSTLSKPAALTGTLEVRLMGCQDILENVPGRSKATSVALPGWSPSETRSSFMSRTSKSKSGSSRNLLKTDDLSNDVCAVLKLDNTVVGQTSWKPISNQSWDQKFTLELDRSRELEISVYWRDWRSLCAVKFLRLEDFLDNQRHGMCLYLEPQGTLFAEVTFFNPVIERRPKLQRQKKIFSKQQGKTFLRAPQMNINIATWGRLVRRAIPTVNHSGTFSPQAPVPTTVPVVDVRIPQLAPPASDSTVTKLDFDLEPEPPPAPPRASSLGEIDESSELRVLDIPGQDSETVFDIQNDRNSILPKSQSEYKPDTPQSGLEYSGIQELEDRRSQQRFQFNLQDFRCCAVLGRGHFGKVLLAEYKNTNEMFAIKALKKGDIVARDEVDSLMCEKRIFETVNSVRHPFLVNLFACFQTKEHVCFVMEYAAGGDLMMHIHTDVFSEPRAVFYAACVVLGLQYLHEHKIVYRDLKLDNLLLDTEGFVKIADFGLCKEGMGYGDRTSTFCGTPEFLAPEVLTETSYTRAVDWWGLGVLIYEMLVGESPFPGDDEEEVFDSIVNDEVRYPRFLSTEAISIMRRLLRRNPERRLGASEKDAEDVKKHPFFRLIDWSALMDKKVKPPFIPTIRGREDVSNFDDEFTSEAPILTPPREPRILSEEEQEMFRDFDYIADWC

[26] = biological target: Megakaryocyte-associated tyrosine-protein kinase (Homo sapiens) (UniProt P42679); test: Inhibition of wild-type human full length CTK (M43 to P508 residues) expressed in mammalian expression system at 10 uM by Kinomescan method relative to control
[27] = tested on: Epidermal growth factor receptor (Homo sapiens), P00533 [UNDEFINED MUTATION]; test: Inhibition of human partial length EGFR L747-S752del/P753S mutant expressed in bacterial expression system at 10 uM by Kinomescan method relative to control

Phosphatidylinositol 4,5-bisphosphate 3-kinase catalytic subunit alpha isoform (Homo sapiens), P42336 [H1047Y], sequence (P42336 whole entry H1047Y, the tested form may be a part, canonical isoform): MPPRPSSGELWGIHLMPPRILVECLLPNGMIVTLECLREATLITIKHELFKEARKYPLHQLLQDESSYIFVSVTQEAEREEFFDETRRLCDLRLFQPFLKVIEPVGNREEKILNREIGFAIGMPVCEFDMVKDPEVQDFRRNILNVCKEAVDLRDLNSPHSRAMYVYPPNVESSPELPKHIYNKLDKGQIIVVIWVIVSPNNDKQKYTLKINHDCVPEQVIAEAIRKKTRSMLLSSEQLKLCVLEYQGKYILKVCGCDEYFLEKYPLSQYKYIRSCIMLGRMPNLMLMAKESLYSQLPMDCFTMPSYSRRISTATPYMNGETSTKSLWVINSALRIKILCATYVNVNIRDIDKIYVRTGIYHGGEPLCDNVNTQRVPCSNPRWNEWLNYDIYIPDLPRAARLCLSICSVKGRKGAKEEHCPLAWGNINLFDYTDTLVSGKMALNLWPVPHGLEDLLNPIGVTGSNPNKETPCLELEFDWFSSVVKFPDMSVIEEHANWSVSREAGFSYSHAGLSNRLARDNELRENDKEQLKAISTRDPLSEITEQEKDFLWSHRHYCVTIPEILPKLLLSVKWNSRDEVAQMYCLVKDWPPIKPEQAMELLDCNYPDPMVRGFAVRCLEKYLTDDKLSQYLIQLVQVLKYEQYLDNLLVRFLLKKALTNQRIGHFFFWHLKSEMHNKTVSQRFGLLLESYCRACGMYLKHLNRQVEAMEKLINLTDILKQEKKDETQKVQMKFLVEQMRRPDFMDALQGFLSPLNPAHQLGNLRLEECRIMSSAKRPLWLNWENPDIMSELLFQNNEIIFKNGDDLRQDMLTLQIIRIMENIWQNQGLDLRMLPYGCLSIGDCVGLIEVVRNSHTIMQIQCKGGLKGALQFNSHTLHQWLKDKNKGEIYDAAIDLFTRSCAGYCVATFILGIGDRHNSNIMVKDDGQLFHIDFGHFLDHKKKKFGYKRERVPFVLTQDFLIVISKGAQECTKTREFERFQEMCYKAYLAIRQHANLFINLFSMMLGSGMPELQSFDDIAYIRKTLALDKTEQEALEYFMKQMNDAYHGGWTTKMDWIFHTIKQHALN

`O=C(Nc1cccc([C@@H]2CN(c3ncnc4[nH]ccc34)CCN2CCO)c1)Nc1c(F)cccc1N1CCCC1` was tested, and the inhibition [1] was 53%, the inhibition [2] was 100% and the inhibition [3] was 75%. For the same molecule, the inhibition [4] was 87%, the inhibition [5] was 11% and the inhibition [6] was 100%. It also gave an inhibition [7] of 67%, an inhibition [8] of 100% and an inhibition [9] of 97%. It also gave an inhibition [10] of 71%, an inhibition [11] of 100% and an inhibition [12] of 100%. For the same molecule, the inhibition [13] was 2%, the inhibition [14] was 56% and the inhibition [15] was 91%. It also gave an inhibition [16] of 92% and an inhibition [17] of 91%.

`O=C(Nc1cccc([C@H]2CCCN(c3ncnc4[nH]ccc34)C2)c1)Nc1ccccc1N1CCCC1` gave an inhibition [18] of 54%, an inhibition [19] of 48% and an inhibition [20] of 85%. For the same molecule, the inhibition [21] was 100%, the inhibition [22] was 0.35% and the inhibition [23] was 81%. It also gave an inhibition [24] of 72%, an inhibition [25] of 32% and an inhibition [26] of 85%. It also gave an inhibition [27] of 87%.
